# Laboratory results from patent US9951366B2, “Cell-free protein synthesis method and device using a eukaryotic cell lysate in the presence of a caspase inhibitor and the use of a caspase inhibitor for increasing the yield and/or the stability of the synthesized proteins in such a method” (Fraunhofer-Gesellschaft zur Foerderung der angewandten …, priority 2013, dated 2018).
# Peptide text beside a SMILES is read from it. * marks the point of attachment. Cbz = O=C(OCc1ccccc1)*; CH2F = FC*
# What was measured:
# [1] = system: cell-free eukaryotic translation system on the basis of a cell extract from Spodoptera frugiperda (Sf21) insect cells; test: Cell-free expression of membrane proteins (ETB, Hb-EGF, bacteriorhodopsin), protein yield by scintillation measurement; type: biochemical
# Text: Here, the influence of the caspase inhibitor on the expression of different membrane proteins in the eukaryotic translation system was investigated more closely. For this purpose, three different model proteins were selected: the endothelin-B receptor (ETB) is a G-protein coupled receptor with seven transmembrane domains which was used cloned into the vector pIX3.0 (Qiagen) for the expression. Furthermore, the type I transmembrane protein heparin-binding EGF-like growth factor (Hb-EGF), N-terminally fused to the melittin signal sequence and C-terminally fused to eYFP, present in the vector pIX3.0, was used for the expression. In addition, the expression of the membrane protein bacteriorhodopsin which also has seven transmembrane domains and was present in the vector pMA (GeneArt) was investigated. The three proteins were each expressed in the batch and dialysis systems without (−) and with (+) the addition of the caspase inhibitor (CI) in the presence of ^14C-leucine for 48 h (27° C.; 600 rpm, Eppendorf Thermomixer Comfort) and analyzed as in example 1. […] The expression of each of the three membrane proteins (ETB, 49.3 kDa; Hb-EGF, 51 kDa; bacteriorhodopsin, 26.9 kDa) was able to be increased in the dialysis system (comparison of the dialysis batches +CI and −CI) with the addition of the caspase inhibitor by approximately 100% (FIG. 2).
# [2] = system: cell-free eukaryotic translation system on the basis of a cell extract from Spodoptera frugiperda (Sf21) insect cells; test: Cell-free synthesis of SII-eYFP, protein yield by 14C-leucine incorporation (hot TCA precipitation, scintillation); type: biochemical; settings: −V, +CI
# Experimental: The influence of the caspase inhibitor on the maximum achievable protein yield was initially investigated on the basis of the expression of the cytosolic protein SII-eYFP. This model protein is the enhanced yellow fluorescent protein (eYFP) which was fused at the N-terminus with an affinity tag (Strep-Tag, SII-Tag) and was present in the vector pIX3.0 (Qiagen). The expression of the model protein was analyzed in the batch system and the dialysis system (50 μl reaction chamber; 1000 μl feeding chamber; cut-off of the membrane=10 kDa) over a period of 48 h. The translation mixtures were each incubated in the batch system and the dialysis system with (+) and without (−) insect cell vesicles (V) and with (+) and without (−) caspase inhibitor (CI) (at 27° C. and 600 rpm). The protein synthesis was carried out in the presence of the radioactively labeled amino acid ^14C-leucine in order to be able to determine the quantity of de novo synthesized target protein by means of hot TCA precipitation and scintillation measurement. The translation reactions were interrupted at particular time points (0 h, 2 h, 4 h, 24 h and 48 h) and analyzed as follows: 5 μl of the mixture was precipitated in hot TCA or ice-cold acetone in each case. A further 5 μl was resuspended in 25 μl PBS. The remaining sample volume was separated by means of a centrifuging step into the supernatant fluid (SN) and the vesicular fraction (VF). Aliquots of 5 μl of these fractions were diluted in 25 μl PBS each. Following the TCA precipitation, the samples were separated from free radioactive amino acids via a vacuum-driven filtration system and underwent a scintillation measurement. After drying, the proteins precipitated in acetone were collected in a reducing sample buffer and separated electrophoretically.
# [3] = system: cell-free eukaryotic translation system on the basis of a cell extract from Spodoptera frugiperda (Sf21) insect cells; test: Cell-free synthesis of SII-eYFP, fluorescence intensity (phosphorimager), Example 1; type: biochemical; settings: dialysis system after 48 h, −V, +CI versus −CI, densitometric evaluation
# Experimental: The expression of the model protein was analyzed in the batch system and the dialysis system (50 μl reaction chamber; 1000 μl feeding chamber; cut-off of the membrane=10 kDa) over a period of 48 h. The translation mixtures were each incubated in the batch system and the dialysis system with (+) and without (−) insect cell vesicles (V) and with (+) and without (−) caspase inhibitor (CI) (at 27° C. and 600 rpm). The protein synthesis was carried out in the presence of the radioactively labeled amino acid ^14C-leucine in order to be able to determine the quantity of de novo synthesized target protein by means of hot TCA precipitation and scintillation measurement. The translation reactions were interrupted at particular time points (0 h, 2 h, 4 h, 24 h and 48 h) and analyzed as follows: 5 μl of the mixture was precipitated in hot TCA or ice-cold acetone in each case. A further 5 μl was resuspended in 25 μl PBS. The remaining sample volume was separated by means of a centrifuging step into the supernatant fluid (SN) and the vesicular fraction (VF). […] The samples resuspended in PBS were examined in the phosphorimager system (Typhoon TRIO+ imager, GE Healthcare) for their fluorescence intensity. For this purpose, 25 μl samples were pipetted into each cavity of the Ibidi slides and measured, the excitation of the samples taking place at 488 nm and the emission being measured at 526 nm.
# [4] = system: Mel-hEGFR-eYFP in Sf21 insect cell lysates; test: Stability of de novo synthesized Mel-hEGFR-eYFP in batch mode (SDS-PAGE, autoradiography); type: biochemical, Spodoptera frugiperda; settings: inhibitor 30 μM
# Text: The positive influence of the caspase inhibitor on the stability of cell-free synthesized proteins is shown here on the basis of the expression of the EGF receptor, the protein being a human, high molecular weight transmembrane protein (Epidermal Growth Factor Receptor) with intrinsic tyrosine kinase activity. The coding sequence of the EGF receptor was fused N-terminally with a melittin signal sequence (Mel) and C-terminally with yellow fluorescent protein (eYFP) and cloned into the vector pIX3.0 (Qiagen). The model protein is denoted below as Mel-hEGFR-eYFP (=163 kDa). The melittin signal sequence enables translocation of the membrane protein into the microsomes of the eukaryotic cell extract and subsequently embedding into the membrane of the microsomes. Mel-hEGFR-eYFP has nine potential N-glycosylation sites and therefore, due to the translocation of the target protein, N-glycosylation of the target protein is also enabled in the cell-free system. […] The translation reaction was carried out in the absence and the presence of a caspase inhibitor (Z-VAD-FMK, Promega, 30 μM) and a protease inhibitor mixture (“Complete Protease Inhibitor Cocktail”, Roche), respectively, and stopped at the indicated incubation times (1.5 h, 5 h and 24 h) by freezing the translation reaction in liquid nitrogen. […]
# [5] = dialysis system 48 h, +CI vs −CI
smiles,measurement,setting,value
"COC(=O)C[C@H](NC(=O)[C@H](C)NC(=O)[C@@H](NC(=O)OCc1ccccc1)C(C)C)C(=O)CF [Z-VAD-FMK, benzyloxycarbonyl-Val-Ala-Asp-[O-methyl]-fluoromethylketone] (Cbz-Val-Ala-Asp(OMe)-CH2F)",increase of expression of ETB,[1]; [5],approximately 100%
same,increase of expression of Hb-EGF,[1]; [5],approximately 100%
same,increase of expression of bacteriorhodopsin,[1]; [5],approximately 100%
same,"increase of maximum achievable yields of membrane protein, average","[1]; dialysis system, addition of caspase inhibitor",approximately 100%
same,protein yield of SII-eYFP,[2]; batch system after 48 h,17.3 µg/mL
same,protein yield of SII-eYFP,[2]; dialysis system after 48 h,90.8 µg/mL
same,increase of the maximum protein yield of SII-eYFP,"[2]; dialysis system vs batch system, 48 h",approximately 400%
same,"fluorescence signal of SII-eYFP, fold more intense",[3],3.7 times
same,Mel-hEGFR-eYFP integrity in the autoradiograph,[4]; after 24 h incubation time,detectable in an intact form
same,proteolytic decomposition of Mel-hEGFR-eYFP (autoradiograph),"[4]; compared with no inhibitor, 5 h",reduced signs of a proteolytic decomposition
